Consider five substances from patent publication US20100074920A1 (priority 2006, published 2010).

Read-outs that look alike come from different tables or passages of the source.

Assay [1] concerns serum antibodies of test subjects 1-6. Conditions: N-terminal conjugate on a streptavidin plate; sera 1-6.
The test system of assay [2] is serum antibodies of test subjects Serum 1B-8B. Conditions: sera S1B-S8B; streptavidin immobilized peptide.
For assay [3], the system named is serum antibodies of test subjects 1-6. Briefly: ELISA on maleimide-activated plates (Cys-immobilized peptides). The assay is classed as binding, human. Conditions: Cys-conjugate on maleimide plate; sera 1-6. The method, then:
Peptides containing cysteine were bound through the cysteine sulfhydryl group to maleimide activated plates (Reacti-Bind™ Maleimide activated plates, Pierce). The peptides sequences were as follows:
One hundred microliters of the peptide solution (0.5 nmol of peptide) was added to each well and allowed to react overnight at +4° C.
The unreacted maleimide groups were blocked with 2-mercaptoethanol: 150 μl of 1 mM 2-mercaptoethanol in 10 mM sodium phosphate/0.15 M NaCl/2 mM EDTA, pH 7.2 was added to each well and allowed to react for 1 hour at RT.
The serum obtained from person nr. […] Control wells contained no peptide but both 2-mercaptoethanol and BSA blockings were employed. All incubations were performed in duplicates.
Background: In an ELISA, binding on a coated surface is turned into a signal by an enzyme label.

Assay [4] deals with commercial polyclonal antibody from rabbit. The assay can be described thus: ELISA control, peptide coated on maleimide plate. Conditions: peptide coated on a maleimide plate; negligible binding without the peptide. The text has this:
A commercial peptide […] (HM11-peptide), which has been used as a recognition tag on recombinant proteins was used as a control and for testing of analysis of binding between a free core peptide and human antibodies. Due to restricted availability of at least N-terminal sequence the peptide would not be very effective in immunization against the viral as therapy. This peptide is known to be antigenic in animals under immunization conditions and antibodies including polyclonals from rabbit, mice etc.

For the substance Biotin-aminohexanoyl-PWVRGV [Peptide 3], the “immune response of the 6 sera, order of reactivity” value in assay [1] is listed as “distinct pattern of immune recognition”.

Regarding “Biotin-aminocaproyl-CRPWVRGVC [Peptide 4B]”, the “binding of serum antibodies (immune response), absorbance at 450 nm” value in assay [2] is “bind generally more strongly antibodies than the corresponding linear peptide 3”. Regarding Biotin-aminohexanoyl-SYACKR [Peptide 2], the “immune response of the 6 sera, order of reactivity” value in assay [3] is “reacted with sera similarly but reactions with serum 5 was weaker and the serum 6 showed the strongest response”; in assay [1], “sera 2 and 5 showed strongest immune response before sera 3,4 and 6, while serum 1 showed weakest reaction”. In the case of “Biotin-aminocaproyl-CRPKVRDQC [Peptide 3B]”, the “binding of serum antibodies (immune response), absorbance at 450 nm” value in assay [2] is given as “unusually high response, especially with a person S5B”.

“CYPYDVPDYA [HA11, commercial peptide used as a recognition tag on recombinant proteins; control and core peptide]”: in assay [4], the “binding of commercial polyclonal antibody from rabbit to the peptide” value was “effective binding”.
